Reference: ChEMBL document CHEMBL1201862, “PubChem BioAssay data set” (2004)
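How tested: cells in 96-well plates exposed to compound for 48 hours at five concentrations. GI50 marks 50% less growth.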 Activity calls are given as the source filed them. Cut-off read from the data, not from the text of the source: active = GI50 up to about 1.1 µM and inactive = higher.

What was measured:
Test in all cases: NCI anticancer screen, dose series, 48 h
[1] = test system: 786-0
[2] = test system: ACHN
[3] = test system: CAKI-1
[4] = test system: COLO 205
[5] = test system: HCC 2998
[6] = test system: HOP-92
[7] = test system: K562
[8] = test system: LOX IMVI
[9] = test system: M14
[10] = test system: MDA-N
[11] = test system: NCI/ADR-RES
[12] = test system: OVCAR-8
[13] = test system: RPMI-8226
[14] = test system: SF-539
[15] = test system: SK-MEL-28
[16] = test system: SNB-19
[17] = test system: T47D
[18] = test system: UACC-257
[19] = test system: UACC-62
[20] = test system: UO-31

Compound	GI50 [1]	GI50 [2]	GI50 [3]	GI50 [4]	GI50 [5]	GI50 [6]	GI50 [7]	GI50 [8]	GI50 [9]	GI50 [10]	GI50 [11]	GI50 [12]	GI50 [13]	GI50 [14]	GI50 [15]	GI50 [16]	GI50 [17]	GI50 [18]	GI50 [19]	GI50 [20]
COc1cc2c(cc1OC)C1C=NC(C2)c2cc(OC)c(OC)cc21 (stereo not given)	> 100 µM (inactive)	> 100 µM (inactive)	97.7 µM (inactive)	89.7 µM (inactive)	> 100 µM (inactive)	4.49 µM (inactive)	54.2 µM (inactive)	> 100 µM (inactive)	> 100 µM (inactive)	> 100 µM (inactive)	> 100 µM (inactive)	96.2 µM (inactive)	60.3 µM (inactive)	> 100 µM (inactive)	> 100 µM (inactive)	> 100 µM (inactive)	90.8 µM (inactive)	> 100 µM (inactive)	> 100 µM (inactive)	60.1 µM (inactive)
C=C1C(=O)O[C@H]2[C@H]1[C@H](OC(=O)/C(C)=C\C)C[C@]1(CO1)[C@@H]1[C@H](OC(C)=O)C=C(C)[C@]21O [EUPAROTIN ACETATE]	7.46 µM (inactive)	10.6 µM (inactive)	17.3 µM (inactive)	5.24 µM (inactive)	19.3 µM (inactive)	15 µM (inactive)	0.383 µM (active)	12.7 µM (inactive)	21.6 µM (inactive)	13.2 µM (inactive)	21.5 µM (inactive)	30.8 µM (inactive)	4.82 µM (inactive)	30.3 µM (inactive)	14.7 µM (inactive)	> 58.5 µM (inactive)	14.5 µM (inactive)	17.7 µM (inactive)	15.5 µM (inactive)	13.7 µM (inactive)
Nc1ncnc2c1ccn2C1OC2COP(=O)(O)OC2C1O (stereo not given)	0.281 µM (active)	0.0412 µM (active)	0.0904 µM (active)	0.181 µM (active)	0.942 µM (active)	0.462 µM (active)	0.261 µM (active)	0.0735 µM (active)	0.069 µM (active)	0.379 µM (active)	0.565 µM (active)	0.0773 µM (active)	0.124 µM (active)	3.51 µM (inactive)	0.515 µM (active)	1.61 µM (inactive)	0.989 µM (active)	1.26 µM (inactive)	0.0914 µM (active)	0.196 µM (active)
Cc1nc2c(Cl)cc(Cl)cc2c2c1CCO2	> 100 µM (inactive)	> 100 µM (inactive)	23.3 µM (inactive)	> 100 µM (inactive)	> 100 µM (inactive)	73.1 µM (inactive)	> 100 µM (inactive)	> 100 µM (inactive)	> 100 µM (inactive)	> 100 µM (inactive)	> 100 µM (inactive)	> 100 µM (inactive)	> 100 µM (inactive)	> 100 µM (inactive)	> 100 µM (inactive)	> 100 µM (inactive)	> 100 µM (inactive)	> 100 µM (inactive)	> 100 µM (inactive)	67 µM (inactive)
COc1ccc(/C=C/c2cc(OC)cc(=O)o2)cc1 [YANGONIN]	36.1 µM (inactive)	61.7 µM (inactive)	> 100 µM (inactive)	> 100 µM (inactive)	> 100 µM (inactive)	45.2 µM (inactive)	63.1 µM (inactive)	> 100 µM (inactive)	68.4 µM (inactive)	91.6 µM (inactive)	> 100 µM (inactive)	> 100 µM (inactive)	> 100 µM (inactive)	10.2 µM (inactive)	> 100 µM (inactive)	50.4 µM (inactive)	> 100 µM (inactive)	> 100 µM (inactive)	63.1 µM (inactive)	> 100 µM (inactive)
